Reference: patent publication US9938292B2 (GUANGDONG ZHONGSHENG PHARMACEUTICAL CO., LTD, priority 2014, dated 2018)
Read-outs that look alike come from different tables or passages of the source.

System: Hedgehog signaling pathway
Assay: Gli-Luc luciferase reporter gene assay in C3H10T1/2/Gli-Luc cells under Shh-N stimulation
Type: cell-based
Conditions: luciferase RLU, read-out: biological activity: IC50 of the inhibitory activities of compounds on the hedgehog pathway
In short: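 C3H10T1/2 cells stably carrying a Gli-responsive luciferase reporter were stimulated with 30 nM Shh-N conditioned medium plus compound (7-point dilutions, duplicate) for 24 h at 37 °C. Luciferase luminescence read from lysates; IC50 by sigmoidal fit of RLU versus log concentration.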

Molecule `C[C@@H]1CN(c2ccc(-n3ccc4c(-c5ccc(OC(F)(F)F)cc5)cccc4c3=O)cn2)C[C@H](C)O1` [Embodiment 72] has an IC50 (Mus musculus, C3H 10T1/2, 24 h) of 1000 to 5000 nM.

`COc1c(-c2ccc(N3C[C@@H](C)O[C@@H](C)C3)c(C)c2)cnc2c(-c3ccc(C#N)cc3)cccc12` [Embodiment 174] was tested, and the IC50 (Mus musculus, C3H 10T1/2, 24 h) was 100 to 500 nM.

Molecule `COc1c(-c2ccc(N3C[C@@H](C)O[C@@H](C)C3)cc2)nnc2c(-c3ccc(C#N)cc3)cccc12` [Embodiment 152, 4-(3-(4-((2R,6S)-2,6-dimethylmorpholino)phenyl)-4-methoxycinnolin-8-yl) benzonitrile] has an IC50 (Mus musculus, C3H 10T1/2, 24 h) of no more than 50 nM.

In the case of `COc1c(-c2cnc(N3C[C@@H](C)O[C@@H](C)C3)cc2C)cnc2c(-c3ccc(C#N)cc3)cccc12` [Embodiment 167], the IC50 (24 h) is reported as no more than 50 nM.

Work on `COc1c(-c2ccc(N3C[C@@H](C)O[C@@H](C)C3)cc2)cnc2c(-c3ccc(C#N)cc3)cncc12` yielded an IC50 (Mus musculus, C3H 10T1/2, 24 h) of no more than 50 nM.

For `Cc1cn(-c2ccc(N3C[C@@H](C)O[C@@H](C)C3)cc2)c(=O)c2cccc(-c3ccc(F)cc3)c12` [Embodiment 50], the IC50 (Mus musculus, C3H 10T1/2, 24 h) was 500 to 1000 nM.

Work on `C[C@@H]1CN(c2ccc(-n3ccc4c(-c5ccc(C#N)cc5)cccc4c3=O)cc2)C[C@H](C)O1` [Embodiment 73] yielded an IC50 (Mus musculus, C3H 10T1/2, 24 h) of 500 to 1000 nM.

In the case of `CCC(=O)N1[C@H](C)CN(c2ccc(NC(=O)c3cnc4c(-c5ccc(C#N)cc5)cccc4c3OC)cn2)C[C@@H]1C` [Embodiment 245, 8-(4-cyanophenyl)-N-(6-((3S,5R)-3,5-dimethyl-4-propionylpiperazin-1-yl)pyridin-3-yl)-4-methoxyquinoline-3-carboxamide], the IC50 (Mus musculus, C3H 10T1/2, 24 h) is reported as 100 to 500 nM.

Work on `COc1c(-c2ccc(N3C[C@@H](C)O[C@@H](C)C3)nc2)cnc2c(NC(=O)C(C)(C)C)cccc12` [Embodiment 117, N-(3-(6-((2S,6R)-2,6-dimethylmorpholino)pyridin-3-yl)-4-methoxyquinolin-8-yl) pivalamide] yielded an IC50 (Mus musculus, C3H 10T1/2, 24 h) of 1000 to 5000 nM.

`CNC(=O)N1C(C)CN(c2ccc(-n3cc(C)c4c(-c5ccc(C#N)cc5)cccc4c3=O)cc2)CC1C` (stereo not shown) [Embodiment 30] showed an IC50 (Mus musculus, C3H 10T1/2, 24 h) of 100 to 500 nM.

With `Cc1cn(-c2ccc(N3CC(C)OC(C)C3)cc2)c(=O)c2cccc(-c3ccc(C#N)cc3)c12` (stereo not shown) [Embodiment 2] the IC50 (Mus musculus, C3H 10T1/2, 24 h) was 100 to 500 nM.

In the case of `COc1c(-c2cnc(N3C[C@@H](C)O[C@@H](C)C3)nc2)cnc2c(-c3ccc(C#N)cc3)cccc12` [Embodiment 176, 4-(3-(2-((2S,6R)-2,6-dimethylmorpholino)pyrimidin-5-yl)-4-methoxyquinolin-8-yl) benzonitrile], the IC50 (Mus musculus, C3H 10T1/2, 24 h) is reported as no more than 50 nM.

With `CC(=O)N1C(C)CN(c2ccc(-n3cc(C)c4c(-c5ccc(C#N)cc5)cccc4c3=O)cc2)CC1C` (stereo not shown) [Embodiment 22] the IC50 (Mus musculus, C3H 10T1/2, 24 h) was 50 to 100 nM.

Work on `COc1c(N2CCN(C(=O)NC3CCOCC3)CC2)cnc2c(-c3ccc(C#N)cc3)cccc12` [Embodiment 212] yielded an IC50 (Mus musculus, C3H 10T1/2, 24 h) of no more than 50 nM.

`CC(C)(O)c1ccc(N2CCN(c3cnc4c(-c5ccc(C#N)cc5)cccc4c3C3CC3)CC2(C)O)nc1` (stereo not shown) [Embodiment 237, 4-(4-cyclopropyl-3-(3-hydroxy-4-(5-(1-hydroxy-1-methyl-ethyl)pyridin-2-yl)-3-methylpiperazin-1-yl)quinolin-8-yl)benzonitrile] showed an IC50 (Mus musculus, C3H 10T1/2, 24 h) of 100 to 500 nM.

With `Cc1cn(-c2ccc(N3C[C@@H](C)O[C@@H](C)C3)cc2)c(=O)c2cccc(-c3cncnc3)c12` [Embodiment 54] the IC50 (Mus musculus, C3H 10T1/2, 24 h) was 1000 to 5000 nM.

`Cc1cn(-c2ccc(N3C[C@H](C)C[C@@H](C)C3)cc2)c(=O)c2cccc(-c3ccc(C#N)cc3)c12` [Embodiment 1, 4-(2-(4-((3R,5R)-3,5-dimethylpiperidin-1-yl)phenyl)-4-methyl-1-oxo-1,2-dihydroisoquinolin-5-yl)benzonitrile] was tested, and the IC50 (Mus musculus, C3H 10T1/2, 24 h) was 100 to 500 nM.

Molecule `COc1c(N2CCN(c3ccc(C(C)C)cn3)CC2)cnc2c(-c3ccc(C#N)cc3)cccc12` [Embodiment 270, 4-(3-(4-(5-isopropylpyridin-2-yl)-3-)-4-methoxyquinolin-8-yl) benzonitrile] has an IC50 (Mus musculus, C3H 10T1/2, 24 h) of 50 to 100 nM.

For `C[C@@H]1CN(c2ccc(-n3cc(Cl)c4c(-c5ccc(C#N)cc5)cccc4c3=O)cc2Cl)C[C@H](C)O1` [Embodiment 76, 4-(4-chloro-2-(3-chloro-4-((2S,6R)-2,6-dimethylmorpholino)phenyl)-1-oxo-1,2-dihydroisoquinolin-5-yl)benzonitrile], the IC50 (Mus musculus, C3H 10T1/2, 24 h) was 100 to 500 nM.

`COc1c(-c2ccc(N3C[C@@H](C)O[C@@H](C)C3)cc2)cnc2c(-c3ccc(Cl)c(Cl)c3)cccc12` [Embodiment 98] showed an IC50 (Mus musculus, C3H 10T1/2, 24 h) of no more than 50 nM.

Work on `Cc1cn(-c2ccc(N3C[C@@H](C)O[C@@H](C)C3)cc2)c(=O)c2cccc(-c3cccn3C)c12` [Embodiment 48] yielded an IC50 (Mus musculus, C3H 10T1/2, 24 h) of 1000 to 5000 nM.

For `Cc1cn(-c2ccc(N3C[C@@H](C)N(C(=O)c4ccccc4)[C@H](C)C3)cc2)c(=O)c2cccc(-c3ccc(C#N)cc3)c12` [Embodiment 14, 4-(2-(4-((3R,5R)-4-benzoyl-3,5-dimethylpiperazin-1-yl)phenyl)-4-methyl-1-oxo-1,2-dihydroisoquinolin-5-yl)benzonitrile], the IC50 (Mus musculus, C3H 10T1/2, 24 h) was 50 to 100 nM.

Work on `Cc1cn(-c2ccc(N3CC(C)N(CC4CC4)C(C)C3)cc2)c(=O)c2cccc(-c3ccc(C#N)cc3)c12` (stereo not shown) [Embodiment 36] yielded an IC50 (Mus musculus, C3H 10T1/2, 24 h) of 100 to 500 nM.

Molecule `Cc1cn(-c2ccc(N3C[C@@H](C)O[C@@H](C)C3)cc2)c(=O)c2ccnc(-c3ccc(C#N)cc3)c12` [Embodiment 81, 4-(6-(4-((2S,6R)-2,6-dimethylmorpholino)phenyl)-8-methyl-5-oxo-5,6-dihydro-2,6-naphthyridin-1-yl)benzonitrile] has an IC50 (Mus musculus, C3H 10T1/2, 24 h) of 1000 to 5000 nM.

For `COc1c(-c2ccc(N3C[C@@H](C)O[C@@H](C)C3)cc2)cnc2c(-c3ccc(C(F)(F)F)nc3)cccc12` [Embodiment 106], the IC50 (Mus musculus, C3H 10T1/2, 24 h) was 50 to 100 nM.

Molecule `Cc1cn(-c2ccc(N3CC(C)N(c4nccs4)C(C)C3)cc2)c(=O)c2cccc(-c3ccc(C#N)cc3)c12` (stereo not shown) [Embodiment 38] has an IC50 (Mus musculus, C3H 10T1/2, 24 h) of no more than 50 nM.

Work on `COc1c(N2CCN(c3ccc(C(C)(C)O)cn3)CC2)cnc2c(-c3ccc(C#N)cc3)cccc12` [Embodiment 220, 4-(3-(4-(5-(2-hydroxypropan-2-yl)pyridin-2-yl)piperazin-1-yl)-4-methoxyquinolin-8-yl)benzonitrile] yielded an IC50 (Mus musculus, C3H 10T1/2, 24 h) of no more than 50 nM.

In the case of `Cc1cc(C#N)ccc1-c1cccc2c(C3CC3)c(-c3ccc(N4C[C@@H](C)O[C@@H](C)C4)nc3)cnc12` [Embodiment 125], the IC50 (Mus musculus, C3H 10T1/2, 24 h) is reported as no more than 50 nM.

For `Cc1cn(-c2ccc(N3C[C@@H](C)O[C@@H](C)C3)cc2)c(=O)c2cccc(-c3ccc(C#N)nc3)c12` [Embodiment 56], the IC50 (Mus musculus, C3H 10T1/2, 24 h) was 500 to 1000 nM.

In the case of `COc1c(N2CCN(C(=O)C3CC3)CC2)cnc2c(-c3ccc(C#N)cc3)cccc12` [Embodiment 248, 4-(3-(4-cyclopropanecarbonylpiperazin-1-yl)-4-methoxyquinolin-8-yl)benzonitrile], the IC50 (Mus musculus, C3H 10T1/2, 24 h) is reported as no more than 50 nM.

Work on `COc1c(-c2ccc(C(=O)N3C[C@@H](C)O[C@@H](C)C3)s2)cnc2c(-c3ccc(C#N)cc3)cccc12` [Embodiment 178, 4-(3-(5-((2S,6R)-2,6-dimethylmorpholine-4-carbonyl)thiophen-2-yl)-4-methoxyquinolin-8-yl)benzonitrile] yielded an IC50 (Mus musculus, C3H 10T1/2, 24 h) of 100 to 500 nM.

With `CCC(=O)N1[C@H](C)CN(c2ccc(-c3cnc4c(-c5ccc(C#N)cc5C)cccc4c3OC)cn2)C[C@@H]1C` [Embodiment 202] the IC50 (Mus musculus, C3H 10T1/2, 24 h) was no more than 50 nM.

`COc1c(N2CCN(C(C)=O)CC2)cnc2c(-c3ccc(C#N)cc3)cccc12` [Embodiment 215] showed an IC50 (Mus musculus, C3H 10T1/2, 24 h) of 100 to 500 nM.

For `C[C@@H]1CN(c2ccc(NC(=O)c3cnc4c(-c5ccc(C#N)cc5)cccc4c3C3CC3)cn2)C[C@H](C)O1` [Embodiment 244, 8-(4-cyanophenyl)-4-cyclopropyl-N-(6-((2S,6R)-2,6-dimethylmorpholino)pyridin-3-yl) quinoline-3-carboxamide], the IC50 (Mus musculus, C3H 10T1/2, 24 h) was no more than 50 nM.
